Results on seven compounds are retold here after patent US20120214824A1, “PROTEOSTASIS REGULATORS” (priority 2010, published 2012).

The subject of one test is BCL2. Kind of test: Multigene assay (QuantiGene Plex 2.0), mouse MEF cell line. It counts as cell-based. The following applies: 6 hours post-compound treatment. The protocol:
(§1) This assay used the QuantiGene Plex 2.0 Reagent System from Affymetrix. This assay combines the use of bDNA (branch DNA) and xMAP magnetic capture beads from Luminex Technologies to quantitatively and simultaneously detect multiple mRNA transcripts per well. The overall procedure was performed according to the QuantiGene Plex 2.0 Reagent System instruction manual from Affymetrix.
(§2) Cells were seeded at a density of 12,000 cells/well in 96-well plates with an overnight incubation at 37° C., 5% CO2. Cells were treated with serially diluted compounds in a 7-point dose dependent manner. Cell lysis with 50% [v/v] Panomics Lysis Mixture (Lysis Mixture+10 μl/ml 25 Proteinase K) was performed 6 hours post-compound treatment. Lysed cells were heated at 50° C. to ensure appropriate lysing and the plates were then frozen at −80° C. Cell lysates, thawed at room temperature on the day of the assay, were pooled with mouse 8-gene multiplex probe sets and with 8 different sets of magnetic capture beads (Luminex Technology, Austin, Tex.) in a 100 μl/well volume. Biomek FX was used at every liquid transfer step. The eight plates containing lysate-probe-bead mixtures were incubated at 54° C.±1° C. on a shaking platform for an overnight incubation in the dark (18-20 hours). The following day the hybridization plates were compressed by transferring the hybridized lysates into a single magnetic capture plate. The plate was kept on a magnet to hold the beads and then washed with Panomics Wash Buffer 2.0 on a BioTek ELx405 select plate washer to remove any unbound sample. This step was followed by serial hybridizations and washings of the bDNA pre-amplifier (1 hour, 50° C.), bDNA amplifier (1 hour, 50° C.), label probe (1 hour, 50° C.), and streptavidin-phycoerythrin (SAPE, 30 minutes, room temperature). (Zhang, A. et al. Small interfering RNA and gene expression analysis using a multiplex branched DNA assay without RNA purification. J Biomol Screen 10, 549-56 (2005)). The plate was then washed with SAPE wash buffer to remove unbound SAPE and each well was analyzed with the Luminex FlexMap3D (Luminex, Austin, Tex.). SAPE fluorescence measured from each bead was proportional to the number of mRNA transcripts captured by the beads (Zheng, Z., Luo, Y. & McMaster, G. K. Sensitive and quantitative measurement of gene expression directly from a small amount of whole blood. Clin Chem 52, 1294-302 (2006)). Fold changes in gene expression were obtained for each gene per well by normalizing the raw data first to the DMSO control and then to a housekeeping gene (TBP-TATA binding protein or Tub1-alpha-tubulin).

A further test has as its system HMOX. Described as above. It counts as cell-based. The following applies: 6 hours post-compound treatment. The procedure: as §1, §2
The next test deals with HSPA1a. Described as above. The class given is cell-based. Particulars: 6 hours post-compound treatment. The procedure: as §1, §2
The subject of a further test is TUB1. The test is described as above. The class given is cell-based. The following applies: 6 hours post-compound treatment. The protocol: as §1, §2
For the next test, the system named is HspA5. Described as above. The class given is cell-based. Particulars: 6 hours post-compound treatment. The protocol: as §1, §2
The test system of a further test is GCLM. Described as above. The class given is cell-based. Particulars: 6 hours post-compound treatment. The procedure: as §1, §2
For another test, the system named is DDIT3. The test is described as above. The class given is cell-based. Particulars: 6 hours post-compound treatment. The procedure:
as §1, §2

In another test the test system is firefly luciferase. Description: Luciferase folding assay (Lucif.). It counts as cell-based, human. Particulars: HeLa-luciferase cells. An excerpt: Firefly luciferase is a commonly used bioluminescent reporter. This monomeric enzyme of 61 kDa catalyzes a two-step oxidation reaction to yield light, usually in the green to yellow region, typically 550-570 nm. The first step of this reaction is activation of the luciferyl carboxylate by ATP to yield a reactive mixed anhydride. In the second step, the activated intermediate reacts with oxygen to create a transient dioxetane that breaks down to the oxidized products, oxyluciferin and CO2. Upon mixing with substrates, firefly luciferase produces an initial burst of light that decays over about 15 seconds to a low level of sustained luminescence. This kinetic profile reflects the slow release of the enzymatic product, thus limiting catalytic turnover after the initial reaction.
This mammalian cell based assay that used firefly luciferase as a sensor was used to screen for compounds that may modulate the cellular folding environment.
HeLa luciferase cell lines: Frozen bullets containing the cells were thawed briefly at 37° C. then placed into a T-150 flask containing 30-35 ml DMEM medium+Penicillin/Strep (1% final+10% FBS (final)+Geneticin @ 200-500 ug/ml. Cell cultures were maintained at 37° C. with 5% CO2 and water in the bottom of the incubator to keep cells healthy. Upon expanding cell line, luciferase measurements were taken to make sure that activity levels were between 2000-5000 (RLU) when plated at 15K/well in a 96-well format (Bright-Glo Promega) before compound treatment.
Compound treatment of HeLa-luciferase cells: HeLa-luciferase WT cells were plated in a 96-well format at 15K/well the day prior to performing compound treatment and/or luciferase assay. […] Final volume used per well was 90 uL. Flat bottom, white polystyrene plates were used for plating the cells.
For compound treatment, stocks of compounds were made up at 10 mM concentration in DMSO. Stocks compounds were diluted by 100× fold in the same media used for culturing the cells—this leads to a 0.1 mM (or 100 uM) concentration. After diluting the compound in media, 10 uL of the 100 uM solution was placed into each well of cells (90 uL); making the final concentration of the compound 10 uM. If serial dilutions of compounds were tested, serial dilutions of compounds were first made in DMSO accordingly, and further diluted in the media, prior to adding to cells. This procedure allowed for constant final levels of DMSO concentrations, regardless of initial compound concentration.
Performing luciferase activity assay: Bright-Glo Luciferase Assay Reagent (Promega cat #: E2610, E2620, E2650) was thawed out at RT in a water bath. Alternatively, Bright-Glo Luciferase assay buffer (prior to mixing with substrate) was stored overnight at RT, prior to using.
Following compound treatment, plates were removed from 37° C. and allowed to acclimate to RT for 5-10 min. Bright-Glo reagent was added to each cell-containing well in a 1:1 ratio (e.g., 100 uL of Bright Glo for each 100 uL cells).
Plates were placed on a plate shaker for 5 min, removing any air bubbles on the surface (which may interfere with proper reads), and then read on an EnVision 2104 Multilabel reader, Emission filter Luminescence 700, barcode 212, WL 400-700 nm.
Data for representative compounds in this assay are shown under the heading “Lucif.”

Regarding `CC1=C(C(=O)OCC(C)C)C(c2ccc(F)cc2)C2=C(CC(c3ccccc3)CC2=O)N1` (centres unmarked) [drawing 27/Me/COOCH2CHMe2/p-F/H], in the test on BCL2 (Table 2b), the BCL2 gene induction entry is recorded as “− (− Indicates less than 2 fold induction)”. In the test with HMOX (Table 2b), the HMOX gene induction result is “− (− Indicates less than 2 fold induction)”. The HSPA1a gene induction result in the test with HSPA1a (Table 2b) is listed as “− (− Indicates less than 2 fold induction)”. The TUB1 gene induction result in the test on TUB1 (Table 2a) was “− (− Indicates less than 2 fold induction)”. In addition, the HspA5 gene induction result with HspA5 (Table 2b) is given as “− (− Indicates less than 2 fold induction)”. Moreover, in the test on GCLM (Table 2a), the GCLM gene induction result is listed as “− (− Indicates less than 2 fold induction)”. In addition, the DDIT3 gene induction result in the test on DDIT3 (Table 2a) is “− (− Indicates less than 2 fold induction)”. In the test on firefly luciferase (Table 2a), the “Lucif (luciferase activity induction)” value is recorded as “+ (+ indicates a induction of greater than 2 fold)”.

For the compound `CC(C)Oc1ccccc1C1C(C#N)=C(N)NC2=C1C(=O)CC(c1ccccc1)C2` (centres unmarked) [drawing 27/NH2/CN/o-OCHMe2/H], the BCL2 gene induction entry with BCL2 (Table 2b) is given as “− (− Indicates less than 2 fold induction)”. In the test with HMOX (Table 2b), the HMOX gene induction result is given as “+ (+ indicates a induction of greater than 2 fold)”. For the same compound, the HSPA1a gene induction result in the test with HSPA1a (Table 2b) is listed as “+ (+ indicates a induction of greater than 2 fold)”. Also, in the test with TUB1 (Table 2a), the TUB1 gene induction result is reported as “− (− Indicates less than 2 fold induction)”. In the test with HspA5 (Table 2b), the HspA5 gene induction result was “− (− Indicates less than 2 fold induction)”. The GCLM gene induction result with GCLM (Table 2a) is listed as “− (− Indicates less than 2 fold induction)”. In the test with DDIT3 (Table 2a), the DDIT3 gene induction result is listed as “+ (+ indicates a induction of greater than 2 fold)”. Besides, the “Lucif (luciferase activity induction)” value with firefly luciferase (Table 2a) was “+ (+ indicates a induction of greater than 2 fold)”.

`N#CC1=C(N)NC2=C(C(=O)CC(c3ccccc3)C2)C1c1ccc(F)cc1` (centres unmarked) [drawing 27/NH2/CN/p-F/H]: the BCL2 gene induction entry in the test on BCL2 (Table 2b) was “− (− Indicates less than 2 fold induction)”. In the test on HMOX (Table 2b), the HMOX gene induction entry is “− (− Indicates less than 2 fold induction)”. Also, in the test on HSPA1a (Table 2b), the HSPA1a gene induction result was “+ (+ indicates a induction of greater than 2 fold)”. In the test with TUB1 (Table 2a), the TUB1 gene induction entry is on record as “− (− Indicates less than 2 fold induction)”. The HspA5 gene induction entry in the test with HspA5 (Table 2b) was “− (− Indicates less than 2 fold induction)”. In the test on GCLM (Table 2a), the GCLM gene induction entry is reported as “− (− Indicates less than 2 fold induction)”. Further, in the test on DDIT3 (Table 2a), the DDIT3 gene induction entry is listed as “+ (+ indicates a induction of greater than 2 fold)”. Besides, the “Lucif (luciferase activity induction)” value with firefly luciferase (Table 2a) is on record as “+ (+ indicates a induction of greater than 2 fold)”.

In the case of `CCCc1n[nH]c2c1C(c1ccccc1Br)C(C#N)=C(N)O2` (centres unmarked) [drawing 28/(CH2)2Me/2-Br], the BCL2 gene induction result in the test with BCL2 (Table 3b) is “− (− Indicates less than 2 fold induction)”. Further, in the test on HMOX (Table 3b), the HMOX gene induction result was “+ (+ indicates a induction of greater than 2 fold)”. Further, in the test on HSPA1a (Table 3b), the HSPA1a gene induction result was “− (− Indicates less than 2 fold induction)”. The TUB1 gene induction entry with TUB1 (Table 3a) is “− (− Indicates less than 2 fold induction)”. The HspA5 gene induction result in the test with HspA5 (Table 3b) is “− (− Indicates less than 2 fold induction)”. Also, the GCLM gene induction result with GCLM (Table 3a) is “+ (+ indicates a induction of greater than 2 fold)”. The DDIT3 gene induction result with DDIT3 (Table 3a) is given as “− (− Indicates less than 2 fold induction)”. Further, in the test on firefly luciferase (Table 3a), the “Lucif (luciferase activity induction)” value is given as “+ (+ indicates a induction of greater than 2 fold)”.

In the case of `CCCc1n[nH]c2c1C(c1ccccc1C(F)(F)F)C(C#N)=C(N)O2` (centres unmarked) [drawing 28/(CH2)2Me/2-CF3 #1], the BCL2 gene induction result with BCL2 (Table 3b) was “− (− Indicates less than 2 fold induction)”. The HMOX gene induction entry in the test with HMOX (Table 3b) is “+ (+ indicates a induction of greater than 2 fold)”. For the same compound, the HSPA1a gene induction result in the test with HSPA1a (Table 3b) was “− (− Indicates less than 2 fold induction)”. In addition, the TUB1 gene induction entry in the test on TUB1 (Table 3a) is on record as “− (− Indicates less than 2 fold induction)”. Moreover, in the test with HspA5 (Table 3b), the HspA5 gene induction result is recorded as “− (− Indicates less than 2 fold induction)”. The GCLM gene induction entry with GCLM (Table 3a) is reported as “+ (+ indicates a induction of greater than 2 fold)”. Further, the DDIT3 gene induction entry with DDIT3 (Table 3a) was “− (− Indicates less than 2 fold induction)”. Further, in the test with firefly luciferase (Table 3a), the “Lucif (luciferase activity induction)” value was “+ (+ indicates a induction of greater than 2 fold)”.

Regarding `CCCc1n[nH]c2c1C(c1ccccc1C(F)(F)F)C(C#N)=C(N)O2` (centres unmarked) [drawing 28/(CH2)2Me/2-CF3 #2], the BCL2 gene induction result in the test with BCL2 (Table 3b) is listed as “− (− Indicates less than 2 fold induction)”. Moreover, the HMOX gene induction entry with HMOX (Table 3b) is given as “+ (+ indicates a induction of greater than 2 fold)”. In the test on HSPA1a (Table 3b), the HSPA1a gene induction result is recorded as “− (− Indicates less than 2 fold induction)”. Moreover, the TUB1 gene induction result with TUB1 (Table 3a) is recorded as “− (− Indicates less than 2 fold induction)”. For the same compound, the HspA5 gene induction result with HspA5 (Table 3b) was “− (− Indicates less than 2 fold induction)”. Further, the GCLM gene induction entry with GCLM (Table 3a) was “+ (+ indicates a induction of greater than 2 fold)”. For the same compound, the DDIT3 gene induction result with DDIT3 (Table 3a) is “− (− Indicates less than 2 fold induction)”. In addition, in the test on firefly luciferase (Table 3a), the “Lucif (luciferase activity induction)” value is “+ (+ indicates a induction of greater than 2 fold)”.

For the compound `CCCc1n[nH]c2c1C(c1cc(Br)ccc1O)C(C#N)=C(N)O2` (centres unmarked) [drawing 28/(CH2)2Me/2-OH-5-Br], the BCL2 gene induction entry in the test with BCL2 (Table 3b) was “− (− Indicates less than 2 fold induction)”. Moreover, the HMOX gene induction result in the test with HMOX (Table 3b) is “+ (+ indicates a induction of greater than 2 fold)”. For the same compound, the HSPA1a gene induction entry with HSPA1a (Table 3b) is on record as “− (− Indicates less than 2 fold induction)”. Moreover, the TUB1 gene induction entry with TUB1 (Table 3a) is “− (− Indicates less than 2 fold induction)”. The HspA5 gene induction entry in the test on HspA5 (Table 3b) is recorded as “− (− Indicates less than 2 fold induction)”. Also, the GCLM gene induction result in the test with GCLM (Table 3a) is listed as “+ (+ indicates a induction of greater than 2 fold)”. For the same compound, the DDIT3 gene induction result in the test with DDIT3 (Table 3a) was “− (− Indicates less than 2 fold induction)”. The “Lucif (luciferase activity induction)” value in the test on firefly luciferase (Table 3a) is reported as “+ (+ indicates a induction of greater than 2 fold)”.
